# Measured values published in PubChem BioAssay (NCI).
#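 Grown in 96-well plates, cells were treated for 48 hours with each compound at five concentrations. Insufficient inhibition: endpoint recorded as highest concentration tested. GI50 marks 50% less growth. TGI: total growth inhibition.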
# Columns and labels:
# Experiment in all cases: NCI-60 cell line screen, 48 h
# KM12 colon = test system: KM12 colon
# NCI-H23 lung = test system: NCI-H23 lung
# K-562 leukemia = test system: K-562 leukemia
# HCT-116 colon = test system: HCT-116 colon
# OVCAR-3 ovarian = test system: OVCAR-3 ovarian
# OVCAR-8 ovarian = test system: OVCAR-8 ovarian
# SW-620 colon = test system: SW-620 colon
# UACC-62 melanoma = test system: UACC-62 melanoma
# NCI-H226 lung = test system: NCI-H226 lung
# EKVX NSCLC = test system: EKVX NSCLC
# SNB-19 CNS = test system: SNB-19 CNS
# UO-31 renal = test system: UO-31 renal
# SK-MEL-5 melanoma = test system: SK-MEL-5 melanoma
# RPMI-8226 leukemia = test system: RPMI-8226 leukemia
# SK-MEL-28 melanoma = test system: SK-MEL-28 melanoma
# NCI-H522 lung = test system: NCI-H522 lung
# HOP-92 NSCLC = test system: HOP-92 NSCLC
# U251 CNS = test system: U251 CNS
# 786-0 renal = test system: 786-0 renal
# MALME-3M melanoma = test system: MALME-3M melanoma
# NCI-H460 lung = test system: NCI-H460 lung
# A549 NSCLC = test system: A549 NSCLC
# ACHN renal = test system: ACHN renal
# SF-295 CNS = test system: SF-295 CNS
# SN12C renal = test system: SN12C renal
# M14 melanoma = test system: M14 melanoma
# DU-145 prostate = test system: DU-145 prostate
# CAKI-1 renal = test system: CAKI-1 renal
# HCC-2998 colon = test system: HCC-2998 colon
# SF-539 CNS = test system: SF-539 CNS
# SK-OV-3 ovarian = test system: SK-OV-3 ovarian
# HOP-62 NSCLC = test system: HOP-62 NSCLC
# MDA-MB-231 breast = test system: MDA-MB-231 breast
# CCRF-CEM leukemia = test system: CCRF-CEM leukemia
# HL-60(TB) leukemia = test system: HL-60(TB) leukemia
# HCT-15 colon = test system: HCT-15 colon
# SF-268 CNS = test system: SF-268 CNS
# SK-MEL-2 melanoma = test system: SK-MEL-2 melanoma
# OVCAR-4 ovarian = test system: OVCAR-4 ovarian
# OVCAR-5 ovarian = test system: OVCAR-5 ovarian
# UACC-257 melanoma = test system: UACC-257 melanoma
# RXF 393 renal = test system: RXF 393 renal
# LOX IMVI melanoma = test system: LOX IMVI melanoma
# MOLT-4 leukemia = test system: MOLT-4 leukemia
# HT29 colon = test system: HT29 colon
# IGROV1 ovarian = test system: IGROV1 ovarian
# BT-549 breast = test system: BT-549 breast
# HS 578T breast = test system: HS 578T breast
# TK-10 renal = test system: TK-10 renal
# T-47D breast = test system: T-47D breast
# A498 renal = test system: A498 renal
# MDA-MB-435 = test system: MDA-MB-435
# PC-3 prostate = test system: PC-3 prostate
# MCF7 breast = test system: MCF7 breast
# NCI/ADR-RES ovarian = test system: NCI/ADR-RES ovarian
compound,measurement,setting,value
CC(=O)OC1C2(CC3N4C(=O)C5(CO)SSC4(CC31O)C(=O)N5C)OC(C)C(C)(C)C2=O (stereo not given),GI50,KM12 colon,1160 nM
same,TGI,KM12 colon,2600 nM
same,GI50,NCI-H23 lung,< 37.1 nM
same,TGI,NCI-H23 lung,93.2 nM
same,GI50,K-562 leukemia,< 28.8 nM
same,TGI,K-562 leukemia,1910 nM
same,GI50,HCT-116 colon,69.6 nM
same,TGI,HCT-116 colon,212 nM
same,GI50,OVCAR-3 ovarian,1320 nM
same,TGI,OVCAR-3 ovarian,3010 nM
same,GI50,OVCAR-8 ovarian,< 49.5 nM
same,TGI,OVCAR-8 ovarian,222 nM
same,GI50,SW-620 colon,< 10 nM
same,TGI,SW-620 colon,13.6 nM
same,GI50,UACC-62 melanoma,10.3 nM
same,TGI,UACC-62 melanoma,32.2 nM
same,GI50,NCI-H226 lung,14.2 nM
same,TGI,NCI-H226 lung,55.3 nM
same,GI50,EKVX NSCLC,124 nM
same,TGI,EKVX NSCLC,709 nM
same,GI50,SNB-19 CNS,18.4 nM
same,TGI,SNB-19 CNS,66.6 nM
same,GI50,UO-31 renal,95.2 nM
same,TGI,UO-31 renal,1050 nM
same,GI50,SK-MEL-5 melanoma,38.9 nM
same,TGI,SK-MEL-5 melanoma,94.7 nM
same,GI50,RPMI-8226 leukemia,< 39.8 nM
same,GI50,SK-MEL-28 melanoma,14.1 nM
same,TGI,SK-MEL-28 melanoma,69.6 nM
same,GI50,NCI-H522 lung,1330 nM
same,TGI,NCI-H522 lung,3170 nM
same,GI50,HOP-92 NSCLC,76.3 nM
same,TGI,HOP-92 NSCLC,214 nM
same,GI50,U251 CNS,< 10 nM
same,GI50,786-0 renal,234 nM
same,TGI,786-0 renal,528 nM
same,GI50,MALME-3M melanoma,154 nM
same,GI50,NCI-H460 lung,< 48.5 nM
same,TGI,NCI-H460 lung,217 nM
same,GI50,A549 NSCLC,59.2 nM
same,TGI,A549 NSCLC,231 nM
same,GI50,ACHN renal,< 10 nM
same,TGI,ACHN renal,22.5 nM
same,GI50,SF-295 CNS,1960 nM
same,TGI,SF-295 CNS,3940 nM
same,GI50,SN12C renal,< 11.4 nM
same,TGI,SN12C renal,50 nM
same,GI50,M14 melanoma,253 nM
same,TGI,M14 melanoma,722 nM
same,TGI,DU-145 prostate,267 nM
same,GI50,CAKI-1 renal,1880 nM
same,TGI,CAKI-1 renal,3860 nM
same,GI50,HCC-2998 colon,< 18 nM
same,TGI,HCC-2998 colon,53.8 nM
same,GI50,SF-539 CNS,139 nM
same,TGI,SF-539 CNS,215 nM
same,GI50,SK-OV-3 ovarian,74.5 nM
same,TGI,SK-OV-3 ovarian,454 nM
same,GI50,HOP-62 NSCLC,575 nM
same,TGI,HOP-62 NSCLC,1080 nM
same,GI50,MDA-MB-231 breast,< 10 nM
same,TGI,MDA-MB-231 breast,55.8 nM
same,TGI,CCRF-CEM leukemia,175 nM
same,GI50,HL-60(TB) leukemia,37.9 nM
same,GI50,HCT-15 colon,< 10 nM
same,TGI,HCT-15 colon,< 19.7 nM
same,GI50,SF-268 CNS,896 nM
same,TGI,SF-268 CNS,2950 nM
same,GI50,SK-MEL-2 melanoma,339 nM
same,TGI,SK-MEL-2 melanoma,1790 nM
same,GI50,OVCAR-4 ovarian,< 11.4 nM
same,TGI,OVCAR-4 ovarian,34.5 nM
same,GI50,OVCAR-5 ovarian,57.8 nM
same,TGI,OVCAR-5 ovarian,208 nM
same,GI50,UACC-257 melanoma,224 nM
same,TGI,UACC-257 melanoma,651 nM
same,GI50,RXF 393 renal,47.3 nM
same,TGI,RXF 393 renal,151 nM
same,GI50,LOX IMVI melanoma,< 10 nM
same,TGI,LOX IMVI melanoma,< 12.1 nM
same,GI50,MOLT-4 leukemia,< 17.9 nM
same,TGI,MOLT-4 leukemia,62.2 nM
same,GI50,HT29 colon,< 10 nM
same,GI50,IGROV1 ovarian,117 nM
same,TGI,IGROV1 ovarian,577 nM
same,GI50,BT-549 breast,146 nM
same,TGI,BT-549 breast,728 nM
same,GI50,HS 578T breast,44.9 nM
same,TGI,HS 578T breast,213 nM
same,GI50,TK-10 renal,1730 nM
same,TGI,TK-10 renal,3270 nM
same,GI50,T-47D breast,< 10 nM
same,TGI,T-47D breast,78.2 nM
same,GI50,A498 renal,35.2 nM
same,TGI,A498 renal,71.7 nM
same,GI50,MDA-MB-435,1940 nM
same,TGI,MDA-MB-435,3750 nM
same,GI50,PC-3 prostate,148 nM
same,TGI,PC-3 prostate,588 nM
same,GI50,MCF7 breast,< 13.9 nM
same,TGI,MCF7 breast,403 nM
same,GI50,NCI/ADR-RES ovarian,< 42 nM
same,TGI,NCI/ADR-RES ovarian,879 nM
N=C(N)c1ccc(-c2ccc(-c3ccc(Cl)cc3)o2)nc1,GI50,CAKI-1 renal,1420 nM
same,TGI,CAKI-1 renal,2740 nM
